Measured values published in US7186743B2, “Substituted pyrazolyl compounds for the treatment of inflammation” (Pharmacia Corporation, priority 2001, dated 2007).
Read-outs that look alike come from different tables or passages of the source.

Biological target: T1, IKK2 (Homo sapiens, UniProt O14920)
T1 construct: made in house; host or cells: insect cells (baculovirus, pFastBac; SF9)
T1 sequence (O14920 1-756): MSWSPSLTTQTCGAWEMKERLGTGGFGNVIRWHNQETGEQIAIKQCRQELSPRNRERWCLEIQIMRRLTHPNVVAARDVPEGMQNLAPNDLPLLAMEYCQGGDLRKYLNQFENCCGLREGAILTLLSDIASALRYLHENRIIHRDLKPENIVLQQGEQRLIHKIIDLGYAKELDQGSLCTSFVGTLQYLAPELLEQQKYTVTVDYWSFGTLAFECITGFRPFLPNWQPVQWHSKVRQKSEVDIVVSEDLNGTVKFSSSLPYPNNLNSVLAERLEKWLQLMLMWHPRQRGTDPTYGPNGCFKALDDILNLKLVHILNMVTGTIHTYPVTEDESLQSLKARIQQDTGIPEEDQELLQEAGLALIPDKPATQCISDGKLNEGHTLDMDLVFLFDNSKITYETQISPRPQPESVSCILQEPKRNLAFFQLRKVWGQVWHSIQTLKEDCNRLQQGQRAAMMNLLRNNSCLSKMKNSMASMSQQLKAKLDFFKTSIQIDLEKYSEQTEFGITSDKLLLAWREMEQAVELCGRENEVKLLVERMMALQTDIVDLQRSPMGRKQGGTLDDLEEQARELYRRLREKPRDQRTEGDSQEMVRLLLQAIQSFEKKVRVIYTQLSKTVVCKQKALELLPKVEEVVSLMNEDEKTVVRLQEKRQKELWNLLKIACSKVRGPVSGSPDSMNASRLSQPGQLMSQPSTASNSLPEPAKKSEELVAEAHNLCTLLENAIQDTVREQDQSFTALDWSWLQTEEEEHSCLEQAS
Assay: IKKβ Resin Enzyme Assay (IKK2 resin)
Type: biochemical
Procedure, shortened: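 Radiometric test: [γ-33P]ATP incorporation into a biotinylated IκBα peptide, 30 min at 25° C, pH 7.6 Hepes with MgCl2/MnCl2 and 1 μM cold ATP. Reaction is quenched with Dowex resin and the supernatant is counted. Kinase is FLAG-purified homodimeric recombinant human IKK2 from insect cells.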

[1] = Table 6, read-out: IKK2 Resin IC 50
[2] = Table 4, read-out: IKK2 Resin IC50
[3] = Table 14, read-out: IKK2 Resin IC50
[4] = Table 2, read-out: IKK Resin IC50
[5] = Table 15, read-out: IKK2 Resin IC50

In the case of `C=Cc1ccc(-n2nc(C(N)=O)c3c2-c2cc(NC(=O)c4cccnc4Cl)ccc2CC3)cc1` [Example 389, 8-{[(2-chloropyridin-3-yl)carbonyl]amino}-1-(4-vinylphenyl)-4,5-dihydro-1H-benzo[g]indazole-3-carboxamide], the IC50 (Table 17, read-out: IKK2 Resin IC50) is reported as ≤ 1000 nM.
`Cc1c(O)cccc1C(=O)Nc1ccc2c(c1)-c1c(c(C(N)=O)nn1-c1ccc(F)cc1)CC2` [Example 231, 1-(4-fluorophenyl)-8-[(3-hydroxy-2-methylbenzoyl)amino]-4,5-dihydro-1H-benzo[g]indazole-3-carboxamide] was tested, and the IC50 [1] was ≤ 1000 nM.
`CN1CCN(c2ccc(Cl)c(C(=O)Nc3ccc4c(c3)-c3c(c(C(N)=O)nn3-c3ccc5c(c3)OCO5)CC4)n2)CC1` [Example 217, 1-(1,3-benzodioxol-5-yl)-8-({[3-chloro-6-(4-methylpiperazin-1-yl)pyridin-2-yl]carbonyl}amino)-4,5-dihydro-1H-benzo[g]indazole-3-carboxamide] was tested, and the IC50 (Table 5, read-out: IKK2 Resin Avg. IC50) was ≤ 1000 nM.
With `CN(C)c1ccc(Cl)c(C(=O)Nc2ccc3c(c2)-c2c(c(C(N)=O)nn2-c2ccc4c(c2)OCO4)CC3)c1` [Example 183, 1-(1,3-benzodioxol-5-yl)-8-{[2-chloro-5-(dimethylamino)benzoyl]amino}-4,5-dihydro-1H-benzo[g]indazole-3-carboxamide] the IC50 [2] was ≤ 1000 nM.
`NC(=O)c1nn(-c2ccncc2)c2c1CCc1ccc(NC(=O)c3ccccc3Cl)cc1-2` [Example 338, 8-[(2-chlorobenzoyl)amino]-1-pyridin-4-yl-4,5-dihydro-1H-benzo[g]mdazole-3-carboxamide] was tested, and the IC50 [3] was ≤ 1000 nM.
In the case of `CS(=O)(=O)c1ccc(-n2nc(C(N)=O)c3c2-c2cc(NC(=O)c4ccccc4F)ccc2CC3)cc1` [Example 97, 8-[(2-fluorobenzoyl)amino]-1-[4-(methylsulfonyl)phenyl]-4,5-dihydro-1H-benzo[g]indazole-3-carboxamide], the IC50 [4] is reported as ≤ 1000 nM.
In the case of `NC(=O)c1nn(-c2ccc(F)cc2)c2c1CCc1ccc(NC(=O)c3ccc(N)cc3Cl)cc1-2` [Example 232, 8-[(4-amino-2-chlorobenzoyl)amino]-1-(4-fluorophenyl)-4,5-dihydro-1H-benzo[g]indazole-3-carboxamide], the IC50 [1] is reported as ≤ 1000 nM.
For `NC(=O)c1nn(-c2ccccc2)c2c1CCc1ccc(NC(=O)c3ccccc3Cl)cc1-2` [Example 328, 8-[(2-chlorobenzoyl)amino]-1-phenyl-4,5-dihydro-1H-benzo[g]indazole-3-carboxamide], the IC50 [3] was ≤ 1000 nM.
In the case of `CS(=O)(=O)c1ccc(-n2nc(C(N)=O)c3c2-c2cc(NC(=O)c4cccnc4Cl)ccc2CC3)cc1` [Example 98, 8-{[(2-chloropyridin-3-yl)carbonyl]amino}-1-[4-(methylsulfonyl)phenyl]-4,5-dihydro-1H-benzo[g]indazole-3-carboxamide], the IC50 [4] is reported as ≤ 1000 nM.
`CNS(=O)(=O)c1ccc(-n2nc(C(N)=O)c3c2-c2cc(NC(=O)c4ccccc4Cl)ccc2CC3)cc1` [Example 422, 8-[(2-chlorobenzoyl)amino]-1-{4-[(methylamino)sulfonyl]phenyl}-4,5-dihydro-1H-benzo[g]indazole-3-carboxamide] was tested, and the IC50 (read-out: IKK-2 resin IC50) was ≤ 1000 nM.
With `NC(=O)c1nn(-c2ccc(OCCN3CCOCC3)cc2)c2c1CCc1ccc(NC(=O)c3ccccc3Cl)cc1-2` [Example 264, 8-[(2-chlorobenzoyl)amino]-1-[4-(2-morpholin-4-ylethoxy)phenyl]-4,5-dihydro-1H-benzo[g]indazole-3-carboxamide] the IC50 (Table 9, read-out: IKK2 Resin IC50) was ≤ 1000 nM.
In the case of `CSc1ccc(Cl)c(C(=O)Nc2ccc3c(c2)-c2c(c(C(N)=O)nn2-c2ccc(F)cc2)CC3)c1` [Example 235, 8-{[2-chloro-5-(methylthio)benzoyl]amino}-1-(4-fluorophenyl)-4,5-dihydro-1H-benzo[g]indazole-3-carboxamide], the IC50 [1] is reported as ≤ 1000 nM.
`NC(=O)c1nn(-c2ccc(S(=O)(=O)C(F)(F)F)cc2)c2c1CCc1ccc(NC(=O)c3cccnc3Cl)cc1-2` [Example 359, 8-{[(2-chloropyridin-3-yl)carbonyl]amino}-1-{4-[(trifluoromethyl)sulfonyl]phenyl}-4,5-dihydro-1H-benzo[g]indazole-3-carboxamide] was tested, and the IC50 [3] was ≤ 1000 nM.
In the case of `NC(=O)c1nn(-c2ccc(O)cc2)c2c1CCc1ccc(NC(=O)c3cccnc3Cl)cc1-2` [Example 263, 8-{[(2-chloropyridin-3-yl)carbonyl]amino}-1-(4-hydroxyphenyl)-4,5-dihydro-1H-benzo[g]indazole-3-carboxamide], the IC50 (Table 8, read-out: IKK2 Resin IC50) is reported as ≤ 1000 nM.
For `NC(=O)c1nn(-c2ccc(/C=C/C(=O)NCc3ccco3)cc2)c2c1CCc1ccc(NC(=O)c3ccccc3Cl)cc1-2` [Example 310, 8-[(2-chlorobenzoyl)amino]-1-(4-{(1E)-3-[(2-furylmethyl)amino]-3-oxoprop-1-enyl}phenyl)-4,5-dihydro-1H-benzo[g]indazole-3-carboxamide], the IC50 (Table 12, read-out: IKK2 Resin IC50) was ≤ 1000 nM.
`CN1CCN(c2ccc(Cl)c(C(=O)Nc3ccc4c(c3)-c3c(c(C(N)=O)nn3-c3ccc(F)cc3)CC4)n2)CC1` [Example 256, 8-({[3-chloro-6-(4-methylpiperazin-1-yl)pyridin-2-yl]carbonyl}amino)-1-(4-fluorophenyl)-4,5-dihydro-1H-benzo[g]indazole-3-carboxamide] was tested, and the IC50 (Table 7, read-out: IKK2 Resin IC50) was ≤ 1000 nM.
For `CCS(=O)(=O)c1ccc(-n2nc(C(N)=O)c3c2-c2cc(NC(=O)c4cc(NC(C)=O)ccc4Cl)ccc2CC3)cc1` [Example 392, 8-{[5-(acetylamino)-2-chlorobenzoyl]amino}-1-[4-(ethylsulfonyl)phenyl]-4,5-dihydro-1H-benzo[g]indazole-3-carboxamide], the IC50 (Table 18, read-out: IKK2 Resin IC50) was ≤ 1000 nM.
With `NC(=O)c1nn(-c2ccc(F)c(F)c2)c2c1CCc1ccc(NC(=O)c3ccncc3Cl)cc1-2` [Example 354, 8-[(3-chloroisonicotinoyl)amino]-1-(3,4-difluorophenyl)-4,5-dihydro-1H-benzo[g]indazole-3-carboxamide] the IC50 [3] was ≤ 1000 nM.
For `NC(=O)c1nn(-c2cccc(O)c2)c2c1CCc1ccc(NC(=O)c3cccnc3Cl)cc1-2` [Example 284, 8-{[(2-chloropyridin-3-yl)carbonyl]amino}-1-(3-hydroxyphenyl)-4,5-dihydro-1H-benzo[g]indazole-3-carboxamide], the IC50 (Table 10, read-out: IKK2 Resin IC50) was ≤ 1000 nM.
With `CN(C)S(=O)(=O)c1ccc(-n2nc(C(N)=O)c3c2-c2cc(NS(C)(=O)=O)ccc2CC3)cc1` [Example 426, 1-{4-[(dimethylamino)sulfonyl]phenyl}-8-[(methylsulfonyl)amino]-4,5-dihydro-1H-benzo[g]indazole-3-carboxamide] the IC50 (Table 21, read-out: IKK2 Resin IC50) was ≤ 1000 nM.
With `NC(=O)c1nn(-c2ccc(F)cc2)c2c1CCc1ccc(NC(=O)c3ccccc3Cl)cc1-2` [Example 230, 8-[(2-chlorobenzoyl)amino]-1-(4-fluorophenyl)-4,5-dihydro-1H-benzo[g]indazole-3-carboxamide] the IC50 [1] was ≤ 1000 nM.
For `NC(=O)c1nn(-c2ccc3c(c2)OCO3)c2c1CCc1ccc(NC(=O)c3ccccc3[N+](=O)[O-])cc1-2` [Example 192, 1-(1,3-benzodioxol-5-yl)-8-[(2-nitrobenzoyl)amino]-4,5-dihydro-1H-benzo[g]indazole-3-carboxamide], the IC50 [2] was ≤ 1000 nM.
In the case of `NC(=O)c1nn(-c2ccc3c(c2)OCO3)c2c1CCc1ccc(NC(=O)c3c(N)cccc3Cl)cc1-2` [Example 169, 8-[(2-amino-6-chlorobenzoyl)amino]-1-(1,3-benzodioxol-5-yl)-4,5-dihydro-1H-benzo[g]indazole-3-carboxamide], the IC50 [2] is reported as ≤ 1000 nM.
In the case of `CS(=O)(=O)Nc1ccc(-n2nc(C(N)=O)c3c2-c2cc(NC(=O)c4ccccc4Cl)ccc2CC3)cc1` [Example 372, 8-[(2-chlorobenzoyl)amino]-1-{4-[(methylsulfonyl)amino]phenyl}-4,5-dihydro-1H-benzo[g]indazole-3-carboxamide], the IC50 [5] is reported as ≤ 1000 nM.
For `NC(=O)c1nn(-c2ccc(N)cc2)c2c1CCc1ccc(NC(=O)c3ccccc3Cl)cc1-2` [Example 370, 1-(4-aminophenyl)-8-[(2-chlorobenzoyl)amino]-4,5-dihydro-1H-benzo[g]indazole-3-carboxamide], the IC50 [5] was ≤ 1000 nM.
With `NC(=O)c1nn(-c2ccc(F)cc2)c2c1CCc1ccc(NC(=O)c3cccc([N+](=O)[O-])c3Cl)cc1-2` [Example 241, 8-[(2-chloro-3-nitrobenzoyl)amino]-1-(4-fluorophenyl)-4,5-dihydro-1H-benzo[g]indazole-3-carboxamide] the IC50 [1] was ≤ 1000 nM.
In the case of `CS(=O)(=O)c1ccc(-n2nc(C(N)=O)c3c2-c2cc(NC(=O)c4cc([N+](=O)[O-])ccc4Cl)ccc2CC3)cc1` [Example 111, 8-[(2-chloro-5-nitrobenzoyl)amino]-1-[4-(methylsulfonyl)phenyl]-4,5-dihydro-1H-benzo[g]indazole-3-carboxamide], the IC50 [4] is reported as ≤ 1000 nM.
